{"source": "patent US20100284925A1", "about": "“Small Molecule Intervention for Obesity” (priority 2006, published 2010)", "key": {"[1]": {"system": "PLTP promoter", "assay": "PLTP-promoter luciferase reporter in HepG2 and transgenic HepG2/PLTPpLuc cells", "format": "cell-based, human", "conditions": "luciferase reporter, HepG2 or HepG2/PLTPpLuc cells", "from_the_text": "FIG. 2A. A 1.5 Kb PLTP promoter fused to a luciferase reporter was transactivated by topotecan dose-dependently.\nFIG. 2B. Activation of PLTP promoter by topotecan in HepG2 transgenic cells containing the PLTP-promoter luciferase reporter gene fused to the neomycin selectable marker cassette and stably transfected into HepG2 cells to generate the transgenic line (Top panel). Dose-dependent induction of PLTP promoter by topotecan (Bottom panel). Results are the means S.E. of three experiments after normalization with Renilla luciferase.\nFIG. 3A. Dose-dependent transactivation of the PLTP promoter by prieurianin in the HepG2 transgenic cells. Results are the means S.E. of three experiments after normalization with Renilla luciferase.\nFIG. 3B. […] 1, Control; 2. […] Results are the means±S.E. of triplicate experiments.\nFIG. 11. Transactivation of PLTP promoter by cytotoxic and non-cytotoxic drugs. Survey of transactivation of the PLTP promoter by various cytotoxic and non-cytotoxic drugs in the HepG2 transgenic cells was conducted. Results are the means S.E. of three experiments.\nFIG. 12. Effects of trichostatin A (TSA) on transactivation of PLTP promoter by prieurianin. Dose response activation of PLTP promoter by prieurianin either in the presence or the absence of 200 nM TSA. Results are the means S.E. of three experiments.\nTo determine whether non-cytotoxic small molecules could induce PLTP expression, the inventor herein subcloned the PLTP-promoter luciferase reporter into a vector containing a neomycin (G418)-resistance selectable marker and generated a transgenic HepG2 cell line, which harbors the PLTP-promoter luciferase reporter, by stable gene transfection and selection with G418.\nThe transgenic cells were then screened with a library of small molecules derived from natural products."}, "[2]": {"system": "PLTP", "assay": "Serum PLTP protein by Western blot in normal C57BL/6J mice", "format": "in vivo", "conditions": "normal C57BL/6J mice, 0, 2, 5 and 10 mg/kg", "experimental": "FIG. 10. Release of adiponectin and PLTP by preadipocytes and adipocytes, and in serum of normal mice. Preadipocytes (B and D) were treated with 2 μM of prieurianin and media collected after 36 hrs for Western blot analysis of either adiponectin (A and B) or PLTP (C and D). Alternatively, five days following differentiation, conditioned media of adipocyets (A and C) were collected for Western analysis. E. Serum of normal C57BL/6J mice given prieurianin or topotecan (0, 2, 5, and 10 mg/kg) was analyzed by Western blot for PLTP."}, "[3]": {"format": "in vivo, mice", "experimental": "FIG. 15B. Genetically diabetic Ceacam^−/− knockout mice were fed high fat diet for fattening for 4 weeks followed by daily prieurianin treatment (3 or 5 mg/kg) for 21 days. Vehicle treated db/db and Ceacam^−/− mice were given equivolume of Captisol. Results are the means S.E. of 10 animals per group.\nThe effects of prieurianin were tested in three additional mouse models of obesity including the genetically hyperinsulinemic leptin-receptor deficient db/db, the Ceacam−/− glucose intolerant/diabetic, and the diet-induced obese mice. Prieurianin was administered intraperitoneally (i.p.) to 12-14 week-old db/db mice daily (3 or 5 mg/kg) for 30 days. The diet-induced obese Ceacam−/− diabetic mice were fed a high fat diet for 4 weeks for fattening, followed by prieurianin treatment (3 or 5 mg/kg) for 3 weeks. Vehicle treated controls received equivolume injections of Captisol (CyDex Inc., Lenexa, Kans.). Body weight and food intake were measured every three days, and blood samples were collected at the end of the experiment."}, "[4]": {"system": "NIH-3T3/L1 preadipocytes", "assay": "Proliferation of NIH-3T3/L1 preadipocytes (daily cell counting)", "format": "cell-based", "experimental": "FIG. 6. Inhibition of NIH-3T3/L1 preadipocytes proliferation by prieurianin. Cells were treated with various concentrations (0.5, 1, and 2 μM) of prieurianin and growth was assessed by counting daily for 7 days. Results are means±S.E. of triplicate experiments."}, "[5]": {"system": "NIH-3T3/L1 preadipocytes", "assay": "Differentiation of NIH-3T3/L1 preadipocytes into adipocytes (oil red O or Nile Red staining)", "format": "cell-based", "experimental": "FIG. 7. […] NIH-3T3/L1 cells were induced into differentiation and simultaneously treated with 2 μM of prieurianin. Differentiated cells were stained with oil red O—FIG. 7A, undifferentiated control.\nHistogram represents A510 nm absorbance of oil red O stain isopropanol extracts from cells. Results are means±S.E. of triplicate experiments.\n(§1) FIG. 19. Effects of bufalin on preadipocyte differentiation, and dedifferentiation/delipidation in adipo-cytes. NIH-3T3/L1 cells were induced into differentiation and simultaneously treated with either 1 μM of bufalin or 2 μM of prieurianin. Differentiated cells were stained with Nile Red. Alternatively, preadipocytes were induced into differentiation and five days following differentiation, cells were treated with either 1 μM of bufalin or 2 μM of prieurianin for an additional five days and followed by staining with Nile Red. Stained cells were evaluated by fluorescence microscopy.\nTo determine the effects of prieurianin on the differentiation of preadipocytes to adipocytes, the NIH-3T3/L1 preadipocytes were treated with or without the drug at the same time when induction of differentiation was initiated."}, "[6]": {"system": "differentiated NIH-3T3/L1 adipocytes", "assay": "Loss of lipid-positive differentiated adipocytes (oil red O, A510; Nile Red)", "format": "cell-based", "experimental": "FIG. 8. Prieurianin induced loss of differentiated adipocytes. NIH-3T3/L1 preadipocytes were induced into differentiation. Five days following differentiation, cells were treated with various concentrations (0.5, 1, and 2 μM) of prieurianin for an additional five days and followed by staining with oil red O. Micrographs were obtained from representatives of triplicate experiments. Isopropanol extracts of positively stained cells were quantified spectrophotometrically at 510 nm as shown in histogram on the right. Results are means±S.E. of triplicate experiments.\nas §1\nTo assess whether prieurianin has any effect on the differentiated adipocytes, the preadipocytes were allowed to differentiate into adipocytes and then were further cultured for about five days before treating the adipocytes with prieurianin for an additional five to six days, followed by oil red O staining for the presence of lipid accumulating adipocytes."}, "[7]": {"system": "C/EBPα", "assay": "C/EBPα response element luciferase reporter in L1 preadipocytes", "format": "cell-based", "conditions": "prieurianin 2 μM", "experimental": "(§2) FIG. 18. Effects of prieurianin on C/EBPα and β and PPARγ mediated transcription in adipogenesis. Response elements corresponding to C/EBPα and β and PPARγ are cloned into the pGL3 basic luciferase reporter plasmid. L1 preadipocytes were contransfected with the reporter plasmid either in the presence or the absence of the corresponding transcription factors cloned into expression vector, followed by treatment with 2 μM of prieurianin. Cells were harvested for luciferase assay 15-24 hrs later. Results are means±S.E. of triplicate experiments."}, "[8]": {"system": "C/EBPβ", "assay": "C/EBPβ response element luciferase reporter in L1 preadipocytes", "format": "cell-based", "conditions": "prieurianin 2 μM", "experimental": "as §2"}, "[9]": {"assay": "Observation of overt toxicity in treated animals", "format": "in vivo", "conditions": "animals given the drug for the duration of the experiments"}}, "data": [{"compound": "C=C1[C@@H]([C@@]2(C)[C@@H](OC(C)=O)CC(=O)O[C@](C)(COC(C)=O)[C@@H]2C(=O)OC)[C@@H](OC=O)[C@H](OC(=O)[C@H](O)[C@H](C)CC)[C@@]2(C)[C@H](c3ccoc3)CC(=O)[C@]12O", "note": "[prieurianin]", "values": [{"measurement": "transactivation of PLTP promoter", "setting": "[1]", "value": "exhibited the strongest transactivation of the PLTP promoter, and showed induction of PLTP in a dose-dependent manner"}, {"measurement": "serum PLTP protein levels", "setting": "[2]", "value": "a rise in the serum PLTP protein levels"}, {"measurement": "body weight relative to pre-fattening", "setting": "[3]; 3 mg/kg treated group", "value": "Body weight returned to pre-fattening level"}, {"measurement": "toxicity", "setting": "[3]; Ceacam−/− mice given 5 mg/kg", "value": "euthanized after 14 days of treatment due to severe weight loss and unknown toxicity"}, {"measurement": "subcutaneous or visceral fats in postmortem analysis", "setting": "[3]; Ceacam−/− mice given 5 mg/kg, relative to controls", "value": "Little subcutaneous or visceral fats were observed"}, {"measurement": "body weight loss", "setting": "[3]; diet-induced obese Ceacam−/− mice, 3 or 5 mg/kg", "value": "20-26%"}, {"measurement": "reduced food intake", "setting": "[3]; diet-induced obese Ceacam−/− mice, compared to controls", "value": "> 50", "unit": "%"}, {"measurement": "proliferation of preadipocytes", "setting": "[4]; 0.5, 1 and 2 μM, 7 days", "value": "inhibited the proliferation of the NIH-3T3/L1 preadipocytes in a dose-dependent manner"}, {"measurement": "inhibition at 2 µM", "setting": "[4]; Mus musculus, NIH3T3, 168 h, 2 μM, day 7", "value": 50, "unit": "%"}, {"measurement": "preadipocytes differentiation", "setting": "[5]; 2 μM, in the absence of staurosporine", "value": "almost completely inhibited preadipocytes differentiation"}, {"measurement": "differentiation of preadipocytes into lipid accumulating adipocytes", "setting": "[5]; treated at induction of differentiation, oil red O", "value": "dose-dependently prevented the differentiation of preadipocytes"}, {"measurement": "number of lipid positive cells (oil red O stain A510 absorbance)", "setting": "[6]; 2 μM", "value": "almost absent and reduced to a level comparable to the undifferentiated control"}, {"measurement": "number of oil red O stained cells", "setting": "[6]; adipocytes treated five days after differentiation, 0.5, 1 and 2 μM", "value": "profound dose-dependent reduction in the number of oil red O stained cells"}, {"measurement": "transactivation potential of C/EBPα", "setting": "[7]", "value": "inhibits the transactivation potential"}, {"measurement": "transactivation potential of C/EBPβ", "setting": "[8]", "value": "inhibits the transactivation potential"}, {"measurement": "overt toxicity", "setting": "[9]", "value": "no overt toxicity was observed"}]}]}
